Measured values: patent publication US20220288151A1, “COMPOSITIONS AND METHODS FOR TREATING NEUROLOGICAL DISEASES” (CARMEL HAIFA UNIVERSITY ECONOMIC CORPORATION LTD., priority 2019, published 2022)

How the values were obtained:
[1] = Body weight during TMZ/vehicle i.p. injection protocol; type: in vivo; details: mice given TMZ or vehicle i.p. on three consecutive days per week for four weeks
Description: The enriched environment (groups 2 and 3) included a running wheel, two different objects, small ball, a short plastic tube, bedding, and a nest. Control animals (groups 1 and 4) were in standard cages including bedding and nest. In both conditions, three mice were housed per cage for four weeks. The mice received a TMZ/vehicle i.p. injection three times a week. On day 29, the mice received a BrdU i.p. injection and were perfused 24 h later for IHC analysis. For neurogenesis suppression, TMZ was dissolved in DMSO at 25 mg/ml and diluted to 1.25 mg/ml in sterile saline. The mice were given i.p. injections of saline +5% DMSO (vehicle) or TMZ on three consecutive days followed by four days with no injection for four weeks. On the last week, BrdU was given i.p. in 0.9% NaCl at 200 mg/kg body weight.
Sixteen (16) eEF2K double foxed mice were injected with CaMKII-Cre and GFP viruses to the DG and 3 weeks following virus injection were injected i.p TMZ and vehicle. TMZ was dissolved in DMSO at 25 mg/ml and diluted to 1.25 mg/ml in sterile saline. The mice were given i.p. injections of saline +5% DMSO (vehicle) or TMZ on three consecutive days followed by four days with no injection for four weeks. On the last week, BrdU was given i.p. in 0.9% NaCl at 200 mg/kg body weight. […]

eEF2 (pThr56eEF2) = test: Western blot of pThr56eEF2, eEF2 and tubulin in DG and cortex samples after ketamine i.p. injection; type: in vivo, mice; details: 30 min after injection; for pThr56eEF2 normalized to total eEF2 in DG lysates: dentate gyrus
Description: Mouse brains were quickly excised and snap frozen immediately in liquid nitrogen, and then transferred to −80° C. for later use. The brains were kept in the cryostat cabin for 15 min at −15° C. before starting tissue punching. Four 500 μm thick coronal sections were sliced slowly, and the DG and cortex tissues from both hemispheres were collected by a mouse tissue puncher. The DG and cortex tissues were transferred to a new tubes and kept immediately on dry ice and then transferred to −80° C. until further use. Brain tissues were homogenized in 100 μl of ice-cold homogenization buffer (HEPES 10 mM pH 7.4, EDTA 2 mM pH 7.4, EGTA 2 mM pH 7.4, DTT 0.5 mM (all from Sigma-Aldrich, Rehovot, Israel), 1× protease inhibitor mixture (Sigma-Aldrich Rehovot, Israel); and 1× phosphatase inhibitor mixture (Sigma-Aldrich)). Protein concentration was determined by a BCA kit (CYANAGEN, PRTD1, 0500). Protein Samples were prepared in SDS sample buffer (22.22% glycerol, 22.22% SDS (20% stock), 26.66% (0.5 M Tris PH 6.8), rest DDW) and β-Mercaptoethanol, then were boiled in 100° C. for 5 min. Each sample was divided to 3 aliquots. Each aliquot was thawed on ice and used for blotting only once or twice. The samples were subjected to 10% or 12% gel SDS-PAGE (electrophoresed on Bio-Rad PAGE apparatus) and Western blot analysis. Each sample was loaded with the same amount of total protein (8-12 μg; according to antibody linearity). After transfer to a […] pore size nitrocellulose membrane or PVDF membrane, the blots were blocked with 5% bovine serum albumin (BSA) or non-fat dry milk (blotting-grade blocker, Bio-Rad) in Tris-buffered saline plus 0.5% tween-20 (TBST) at room temperature for 1 hr. The blots were incubated overnight with the suitable primary antibodies. The blots were then subjected to three 5 min washing steps in TBST, after which they were incubated with the corresponding HRP-conjugated secondary antibodies for 1 h at room temperature followed by three 10 min washing steps with TBST. Immunodetection was performed with the enhanced-chemiluminescence EZ-ECL kit (Biological Industries, Israel). The immunoblots were quantified with a CCD camera and Quantity One software (Bio-Rad).
For all tested proteins, polyacrylamide gels were freshly prepared and used on the same day. Polyacrylamide gels (10%, Tris pH 8.8) were used to analyze the expression of eEF2, pThr56eEF2, vimentin, decorin, AMPK, pThr172AMPK, KIFSA, ERK2, pERK2, pS6K1, S6K1 and tubulin. In addition, criterion gels (BIO-RAD) were used to analyze the expression of NSF protein in the different fractions. Samples containing 10 μg protein were loaded for the detection of each protein. Samples containing 8 μg protein were loaded for ERK and pERK and […] for S6K1 and pS6K1. Each immunoblot was measured relative to the background and normalized to the endogenous control (tubulin), taken from the same gel. Mature-BDNF was analyzed using 12% (Tris pH 8.8) polyacrylamide gel and was measured relative to the background and normalized to tubulin from the same gel. Samples containing 12 μg protein were loaded for mature-BDNF. The phoshpo-protein was normalized to tubulin taken from the same gel as well.

WT mice = test: Forced swim test; type: in vivo; details: WT naive mice, ketamine 5 mg/kg i.p., 30 min before test, vs saline; last 4 min scored
Description: WT mice were injected with ketamine 5 mg/kg or saline i.p., and 30 min later together with the CaMKII Cre/GFP-injected mice were all subjected to the forced swim test (FST). The mice were placed in a 5-liter transparent glass beaker containing 4-liter warm water at 24° C. The mice were video recorded for 6 min. The last 4 min were manually scored for immobility. Total immobility time (in seconds) is presented in the results.

[2] = ketamine 5 mg/kg i.p. vs control, cortex
[3] = ketamine 5 mg/kg i.p. vs saline

With `Cn1nnc2c(C(N)=O)ncn2c1=O` [TMZ, Temozolomide] the “body weight throughout the experiment” value [1] was “maintained normal body weight”.

With `CNC1(c2ccccc2Cl)CCCCC1=O` (stereo not shown) [ketamine] the “eEF2 protein level normalized to tubulin in cortex tissue” value (eEF2 (pThr56eEF2); [2]) was “no change in eEF2 protein level”, the “pT56eEF2 normalized to eEF2 protein in cortex tissue” value (eEF2 (pThr56eEF2); [2]) was “reduces pT56eEF2 levels” and the “eEF2 protein levels normalized to tubulin (DG samples)” value (eEF2 (pThr56eEF2); [3]) was “no change in eEF2 protein levels”. The “pThr56eEF2 normalized to total eEF2 in DG lysates” value (eEF2 (pThr56eEF2); [3]) was “peEF2 levels were reduced”, the “pThr56eEF2 normalized to total eEF2 in DG lysates” value (eEF2 (pThr56eEF2); ketamine 5 mg/kg i.p. vs saline, listed as Ketamine) was “induces eEF2 dephosphorylation” and the “immobility time in forced swim test” value (WT mice) was “significantly lower immobility time”.
